Reference: patent US8420670B2 (Abbott Laboratories, priority 2007, dated 2013)
Counter-ions that a name gives are not always drawn.

Assays:
[1] = target: T1, Human GlyT1c (Homo sapiens, UniProt P48067); experiment: Glycine uptake in recombinant hGlyT1 expressing cells; format: cell-based; settings: hGlyT1c_5_CHO cells; [3H]-glycine uptake, 60-120 min
T1 construct: expressed in transfected cells; host or cells: CHO (hGlyT1c_5_CHO clone)
T1 sequence (P48067 1-706): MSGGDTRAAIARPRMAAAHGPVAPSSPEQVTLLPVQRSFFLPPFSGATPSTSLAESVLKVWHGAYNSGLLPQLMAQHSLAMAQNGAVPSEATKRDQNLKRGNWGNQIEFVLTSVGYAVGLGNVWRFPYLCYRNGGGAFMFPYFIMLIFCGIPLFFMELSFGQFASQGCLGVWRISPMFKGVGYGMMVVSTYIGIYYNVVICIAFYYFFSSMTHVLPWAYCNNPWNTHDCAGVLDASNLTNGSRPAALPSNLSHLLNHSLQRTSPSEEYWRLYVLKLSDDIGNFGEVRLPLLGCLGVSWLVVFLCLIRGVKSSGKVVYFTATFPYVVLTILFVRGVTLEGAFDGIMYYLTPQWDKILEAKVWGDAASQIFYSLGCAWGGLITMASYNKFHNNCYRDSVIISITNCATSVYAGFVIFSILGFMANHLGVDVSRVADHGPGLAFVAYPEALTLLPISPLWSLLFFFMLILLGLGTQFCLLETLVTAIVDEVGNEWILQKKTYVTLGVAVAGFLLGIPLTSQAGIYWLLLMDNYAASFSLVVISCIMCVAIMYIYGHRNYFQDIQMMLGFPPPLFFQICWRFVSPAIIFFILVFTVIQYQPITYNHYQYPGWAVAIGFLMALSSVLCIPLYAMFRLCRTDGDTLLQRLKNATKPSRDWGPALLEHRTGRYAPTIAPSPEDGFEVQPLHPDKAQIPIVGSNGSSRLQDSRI
Experimental: 1. Glycine Uptake in Recombinant hGlyT1 Expressing Cells:
Human GlyT1c expressing recombinant hGlyT1c—5_CHO cells were plated at 20,000 cells per well in 96 well Cytostar-T scintillation microplates (Amersham Biosciences) and cultured to sub-confluency for 24 h. For glycine uptake assays the culture medium was aspirated and the cells were washed once with 100 μl HBSS (Gibco BRL, #14025-050) with 5 mM L-Alanine (Merck #1007). 80 μl HBSS buffer were added, followed by 10 μl inhibitor or vehicle (10% DMSO) and 10 μl [^3H]-glycine (TRK71, Amersham Biosciences) to a final concentration of […] for initiation of glycine uptake. The plates were placed in a Wallac Microbeta (PerkinElmer) and continuously counted by solid phase scintillation spectrometry during up to 3 hours. Nonspecific uptake was determined in the presence of 10 μM Org24598. IC50 calculations were made by four-parametric logistic nonlinear regression analysis (GraphPad Prism) using determinations within the range of linear increase of [^3H]-glycine incorporation between 60 and 120 min.

[2] = target: T2, human GlyT1c transporter (Homo sapiens, UniProt P48067); experiment: [3H]-(R)-NPTS radioligand binding assay using recombinant hGlyT1 expressing cell membranes; settings: 0.5 nM [3H]-(R)-NPTS, apparent Ki via Cheng-Prusoff, read-out: [3H]-(R)-NPTS bindung Ki
T2 construct: expressed in transfected cells; host or cells: recombinant hGlyT1-expressing cells
T2 sequence (P48067 1-706): T1 sequence (P48067 1-706)
Experimental: 2. [^3H]-(R)-NPTS Radioligand Binding Assays using Recombinant hGlyT1 Expressing Cell Membranes:
Radioligand binding to human GlyT1c transporter-expressing membranes was measured in duplicate in a total volume of 200 μl in 96-well plates. To 100 μl of membrane suspension (yielding a final membrane protein concentration of 50 μg/ml) in assay buffer (120 mM NaCl, 2 mM KCl, 10 mM Hepes, 1 mM MgCl2, 1 mM CaCl2, pH 7.5) […] of [^3H]-(R)NPTS (0.5 nM final) were added in assay buffer. For competition experiments 10 μl of buffer or unlabeled compound solution obtained from dilution series of test compounds in DMSO followed. An intermediate 1:10 dilution in assay buffer yielded a final DMSO concentration of 1%. Non-specific binding was determined in the presence of 10 μM Org24598 (or its racemate Org24461) for [^3H]-(R)-NPTS. After incubation at room temperature for 1 h, the incubation mixture was harvested (Tomtec Mach III U Harvester) through 96-well GF/B filter plates (PerkinElmer), presoaked for 1 h with 40 μl per well of 0.1% polyethylene-imine (PEI). After washing twice with ice-cold 50 mM Tris-HCl pH 7.4 buffer, drying and addition of 35 μl scintillator (BetaplateScint, PerkinElmer) per well followed. The radioactivity was determined by liquid scintillation spectrometry in a MicroBeta (PerkinElmer) plate counter.
Data analysis: For binding of [^3H]-(R)-NPTS to cell membranes, the calculation of Kd and Bmax values from the saturation binding assays and the IC50 values from the displacement binding was performed by iterative non-linear regression analysis adapted from the ‘Ligand’ program (Munson and Rodbard, 1980). Radioligand displacement curves in absence or in presence of increasing concentrations of tested compounds were fitted using a one-site fit and the apparent Ki values were calculated from the IC50 values using the Cheng-Prusoff equation (Cheng and Prusoff 1973).

Compound	IC50 [1] [nM]	Ki [2] [nM]
Cc1cc(NCc2ccc(Cl)c(Cl)c2)c2cccc(OCCNS(C)(=O)=O)c2n1 [Example 21]	≤ 100	≤ 10
Cc1cc(NCc2ccc(Cl)c(Cl)c2)c2cccc(S(=O)(=O)NC(C)C)c2n1 [Example 3, 4-(3,4-Dichlorobenzylamino)-2-methyl-quinoline-8-sulfonic isopropylamide]	≤ 10000	≤ 1000
Cc1cc(NCc2ccc(Cl)c(Cl)c2)c2cccc(OCCNC(=O)c3ccccc3)c2n1 [Example 22]	≤ 100	≤ 10
Cc1cc(NCc2ccc(Cl)c(Cl)c2)c2cccc(OCCNC(=O)C(C)C)c2n1 [Example 26, N-{2-[4-(3,4-Dichlorobenzylamino)-2-methylquinolin-8-yloxy]-ethyl}-isobutyramide]	≤ 1000	≤ 1000
Cc1cc(NCc2ccc(Cl)c(Cl)c2)c2cccc(N(C)C)c2n1 [Example 16, N*4*-(3,4-Dichlorobenzyl)-N*8*-dimethyl-2-methylquinolin-4,8-diamine hydrochloride]	≤ 1000	≤ 100
Cc1cc(NCc2ccc(Cl)cc2Cl)c2cccc(OCCNS(C)(=O)=O)c2n1 [Example 38, N-{2-[4-(2,4-Dichlorobenzylamino)-2-methylquinolin-8-yloxy]-ethyl}-methanesulfonamide]	≤ 1000	≤ 100
Cc1cc(NCc2ccc(Cl)c(Cl)c2)c2cccc(OC(C)C)c2n1 [Example 42, (3,4-Dichlorobenzyl)-(8-isopropoxy-2-methylquinolin-4-yl)-amine hydrochloride]	≤ 100	≤ 100
Cc1cc(NCc2ccc(Cl)c(Cl)c2)c2cccc(O)c2n1 [Example 41, 4-(3,4-Dichlorobenzylamino)-2-methylquinolin-8-ol]	≤ 1000	≤ 100
Cc1cc(NCc2ccc(Cl)c(Cl)c2)c2cccc(N3CCCC3)c2n1 [Example 7, (3,4-Dichlorobenzyl)-(2-methyl-8-pyrrolidin-1-yl-quinolin-4-yl)-amine hydrochloride]	≤ 1000	≤ 1000
Cc1cc(N[C@@H](c2ccccc2)[C@@H]2CCCCN2)c2cccc(OCCNS(=O)(=O)c3cccnc3)c2n1 [Example 40, Pyridin-3-sulfonic (2-{2-methyl-4-[((S)-phenyl-(S)-piperidin-2-yl-methyl)-amino]-quinolin-8-yloxy}-ethyl)-amide dihydrochloride]	≤ 10000	≤ 100
CC(=O)Nc1cccc2c(NCc3ccc(Cl)c(Cl)c3)cc(C)nc12 [Example 13, N-[4-(3,4-Dichlorobenzylamino)-2-methylquinolin-8-yl]-acetamide]	≤ 1000	≤ 1000
Cc1cc(NCc2ccc(Cl)c(Cl)c2)c2cccc(OCCNS(=O)(=O)CC(C)C)c2n1 [Example 31, 2-Methylpropane-1-sulfonic {2-[4-(3,4-dichlorobenzylamino)-2-methylquinolin-8-yloxy]-ethyl}-amide]	≤ 100	≤ 10
Cc1cc(NCc2ccc(Cl)c(Cl)c2)c2cccc(OCCNS(=O)(=O)C(F)(F)F)c2n1 [Example 29, N-{2-[4-(3,4-Dichlorobenzylamino)-2-methylquinolin-8-yloxy]-ethyl}-C,C,C-trifluoromethanesulfonamide]	≤ 100	≤ 100
Cc1cc(NCc2ccc(Cl)c(Cl)c2)c2cccc(OCCN)c2n1 [Example 20, [8-(2-Aminoethoxy)-2-methylquinolin-4-yl]-(3,4-dichlorobenzyl)-amine dihydrochloride]	≤ 1000	≤ 10
Cc1cc(NCc2ccc(Cl)c(Cl)c2)c2cccc(N(S(C)(=O)=O)S(C)(=O)=O)c2n1 [Example 11, N-[4-(3,4-Dichlorobenzylamino)-2-methylquinolin-8-yl]-bis-methanesulfonamide]	≤ 100000	≤ 10000
Cc1cc(NCc2ccc(Cl)c(Cl)c2)c2cccc(OCCNC(=O)OC(C)(C)C)c2n1 [Example 19, {2-[4-(3,4-Dichlorobenzylamino)-2-methylquinolin-8-yloxy]-ethyl}-carbamate tert-butyl ester]	≤ 100	≤ 100
Cc1cc(NCc2ccc(Cl)c(Cl)c2)c2cccc(N3CCNCC3)c2n1 [Example 18, (3,4-Dichlorobenzyl)-(2-methyl-8-piperazin-1-yl-quinolin-4-yl)-amine dihydrochloride]	≤ 1000	≤ 100

Second part, the molecule after the results:

IC50 [1] [nM]	Ki [2] [nM]	Compound
≤ 100000	≤ 10000	COc1cccc2c(NC(c3ccc(Cl)cc3)c3nccn3C)cc(C)nc12 (stereo not drawn) [Example 70, [(4-Chlorophenyl)-(1-methyl-1H-imidazol-2-yl)-methyl]-(8-methoxy-2-methylquinoline-4-yl)amine]
≤ 1000	≤ 1000	COc1cccc2c(NC(CN)c3ccccc3)cc(C)nc12 (stereo not drawn) [Example 75, N*1*-(8-Methoxy-2-methylquinolin-4-yl)-1-phenylethane-1,2-diamine]
≤ 10000	≤ 1000	COc1cccc2c(N[C@@H](CN(C)C)c3ccc(Cl)cc3)cc(C)nc12 [Example 77, (R)-1-(4-Chlorphenyl)-N*1*-(8-methoxy-2-methylquinoline-4-yl)-N*2*,N*2*-dimethylethane-1,2-diamin]
≤ 1000	≤ 1000	CSc1cccc2c(NCc3ccc(Cl)cc3)cc(C)nc12 [Example 83, (4-Chlorobenzyl)-(2-methyl-8-methylsulfanylquinolin-4-yl)-amine]
≤ 1000	≤ 100	COc1cccc2c(NC(CN(C)C)c3ccccc3)cc(C)nc12 (stereo not drawn) [Example 71, N*1*-(8-Methoxy-2-methylquinolin-4-yl)-N*2*,N*2*-dimethyl-1-phenylethane-1,2-diamine]
≤ 10000	≤ 10000	COc1cccc2c(NC(CN3CCCC3)c3ccccc3)cc(C)nc12 (stereo not drawn) [Example 69, (8-Methoxy-2-methylquinolin-4-yl)-(1-phenyl-2-pyrrolidin-1-ylethyl)-amine]
≤ 1000	≤ 1000	Cc1cc(NCc2ccc(F)cc2)c2ccccc2n1 [Example 90, (4-Fluorobenzyl)-(2-methylquinoline-4-yl)-amine]
≤ 10000	≤ 10000	COc1cccc2c(NC(CN3CCCCC3)c3ccc(Cl)cc3)cc(C)nc12 (stereo not drawn) [Example 66, [1-(4-Chlorophenyl)-2-piperidin-1-yl-ethyl]-(8-methoxy-2-methylquinolin-4-yl)-amine]
≤ 100	≤ 1000	Cc1cc(NCc2ccc(Cl)c(Cl)c2)c2cccc(OC(F)(F)F)c2n1 [Example 56, (3,4-Dichloro-benzyl)-(2-methyl-8-trifluoromethoxyquinolin-4-yl)-amine]
≤ 1000	≤ 1000	Cc1cc(NCc2ccc(Cl)c(Cl)c2)c2cccc(F)c2n1 [Example 82, (3,4-Dichlorobenzyl)-(8-fluoro-2-methylquinolin-4-yl)-amine]
